Experiments:
Assay type in all cases: cell-based
Conditions in all cases: after 10, 20, 40 and 60 min at all dilutions 1:100, 1:200, 1:400, 1:800
Staphylococcus aereus = experiment: Antimicrobial testing by agar dilution, Staphylococcus aereus
Procedure: (§1) The antimicrobial properties of the 4-[4,4-bis(4-bromophenyl)-2,5-dioxoimidazolidin-1-yl]butanoic acid were studied by the method of agar dilution. Test solutions of each compound was prepared in concentration of 1% using dimethylformamide as a solvent then they are diluted in physiological solution to obtain the final experimental dilutions 1:100, 1:200, 1:400, 1:800. The effect of these substances are compared with furacillin in a controlable study. The testing microbes used were gram positive bacteria Staphylococcus aereus, gram negative bacteria Escherichia coli, Pseudomonas aeruginosa and Candida albicans fungi were taken. The experiments used for this survey were meat-pentonlu agar (EPA) for cultivation of bacteria and Saburo environment for fungi. Each experiment used 1 ml of test solution on each plate 500 min. Add 2 drops of emulsified with microbes feel. All experimental samples were taken from the agar after 10, 20, 40, 60 minutes in the environment on the basis of Patrk planted. Bacteria were cultivated at a temperature of 37° C. for 1 day and the mushroom was kept in a thermostat for […] at a temperature of 28° C. in the. Then results were checked.

Escherichia coli = experiment: Antimicrobial testing by agar dilution, Escherichia coli
Procedure: as §1

Pseudomonas aeruginosa = experiment: Antimicrobial testing by agar dilution, Pseudomonas aeruginosa
Procedure: as §1

Candida albicans = experiment: Antimicrobial testing by agar dilution, Candida albicans fungi
Procedure: as §1

Measured: inhibition activity (summary in words)

O=C(O)CCCN1C(=O)C(c2ccc(Br)cc2)(c2ccc(Br)cc2)NC1=S [4-[4,4-bis(4-bromophenyl)-5-oxo-2-thioxoimidazolidin-1-yl]butanoic acid]
higher inhibition activity: all assays above

From US12180169B1, “4-[4,4-bis(4-bromophenyl)-5-oxo-2-thioxoimidazolidin-1-yl]butanoic acid as an antimicrobial compound” (KING FAISAL UNIVERSITY, priority 2023, dated 2024)
